Several values for one entry are separate records, joined by “and”; a condition that tells them apart may be missing. Equal values may be shown once.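 Exposure lasted 48 hours, with cells grown in 96-well plates and compounds tested at five concentrations. GI50 is the concentration that inhibits growth by half. TGI is the concentration that stops growth completely.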
What was measured:
Assay in all cases: NCI-60 cell line screen, 48 h
786-0 renal = test system: 786-0 renal
HCT-116 colon = test system: HCT-116 colon
HOP-62 NSCLC = test system: HOP-62 NSCLC
HS 578T breast = test system: HS 578T breast
LOX IMVI melanoma = test system: LOX IMVI melanoma
M14 melanoma = test system: M14 melanoma
NCI-H460 lung = test system: NCI-H460 lung
NCI-H522 lung = test system: NCI-H522 lung
SK-MEL-28 melanoma = test system: SK-MEL-28 melanoma
U251 CNS = test system: U251 CNS

SMILES	GI50 (786-0 renal)	TGI (786-0 renal)	GI50 (HCT-116 colon)	TGI (HCT-116 colon)	GI50 (HOP-62 NSCLC)	TGI (HOP-62 NSCLC)	GI50 (HS 578T breast)	TGI (HS 578T breast)	GI50 (LOX IMVI melanoma)	TGI (LOX IMVI melanoma)	GI50 (M14 melanoma)	TGI (M14 melanoma)	GI50 (NCI-H460 lung)	TGI (NCI-H460 lung)	GI50 (NCI-H522 lung)	TGI (NCI-H522 lung)	GI50 (SK-MEL-28 melanoma)	TGI (SK-MEL-28 melanoma)	GI50 (U251 CNS)	TGI (U251 CNS)
Fc1ccc(-c2nn3c(COc4ccccc4Cl)nnc3s2)cc1Oc1ccccc1	21.3 µM	46.7 µM	23.2 µM	66.1 µM	19.4 µM	40.1 µM	47.6 µM	> 100 µM	22.3 µM	51.9 µM	24.4 µM	54.7 µM	42.6 µM	> 100 µM	29.6 µM	> 100 µM	54.6 µM	> 100 µM	18.4 µM	41.2 µM
CC(=O)NS(=O)(=O)c1ccc(-n2nc(-c3ccccc3)cc2-c2cc(O)ccc2O)cc1	57.5 µM	> 100 µM	27.2 µM	> 100 µM	> 100 µM	> 100 µM	> 100 µM	> 100 µM	> 100 µM	> 100 µM	31.4 µM	> 100 µM	> 100 µM	> 100 µM	45 µM	> 100 µM	> 100 µM	> 100 µM	61.6 µM	> 100 µM
O=C1/C(=C\c2ccc(Cl)cc2)CN(C(=O)c2ccccc2)C/C1=C\c1ccc(Cl)cc1	2.19 µM	4.6 µM	0.337 µM	1.04 µM	2.45 µM	6.41 µM	2.92 µM	9.17 µM	0.771 µM	2.26 µM	2.63 µM	7.39 µM	5.97 µM	> 84.7 µM	3.22 µM	10.8 µM	2.94 µM	9.68 µM	1.57 µM	3.26 µM
CCOC(=O)Nc1ccc2c3c(cccc13)-c1ccccc1-2	8 µM	> 100 µM	4.22 µM	> 100 µM	5.27 µM	> 100 µM	3.91 µM	> 100 µM	4.77 µM	> 100 µM	4.32 µM	> 100 µM	3.99 µM	> 100 µM	> 100 µM	> 100 µM	10.7 µM	> 100 µM	5.52 µM	> 100 µM
CCOC(=O)Nc1nc(-c2ccccc2)c(C)s1		> 100 µM		> 100 µM		> 100 µM		> 100 µM		> 100 µM		> 100 µM		> 100 µM		> 100 µM		> 100 µM		> 100 µM
O=C(NCCNc1nccc(-c2c(-c3ccc(F)cc3)nc3sccn23)n1)Nc1cccc(C(F)(F)F)c1	5.16 µM	24.9 µM	5.47 µM	18.9 µM	2.9 µM	10.1 µM	8.17 µM	65.5 µM	5.36 µM	20.7 µM	8.73 µM	21.8 µM	4.51 µM	17.5 µM	12.2 µM	26 µM	7.76 µM	20.9 µM	7.62 µM	31.7 µM
Nc1ncnc2occ(-c3ccc(NC(=O)Nc4cc(C(F)(F)F)ccc4F)cc3)c12	6.63 µM and 4.43 µM	16.4 µM and 10.3 µM	5.2 µM and 1.51 µM	16.8 µM and 9.61 µM	6.32 µM and 2.3 µM	16.2 µM and 5.95 µM	0.773 µM and 2.09 µM	9.1 µM and 9.04 µM	4.83 µM and 2.69 µM	14.9 µM and 10.2 µM	5.86 µM and 2.54 µM	21.4 µM and 7.11 µM	4.86 µM and 2.96 µM	11.2 µM and 6.94 µM	5.48 µM and 1.91 µM	11.2 µM and 5.81 µM	5.73 µM and 4.57 µM	14.3 µM and 11.5 µM	7.26 µM and 4.26 µM	22.8 µM and 11.2 µM
COc1cc2c3c(n(CCCNC(C)(C)CO)c(=O)c2cc1OC)-c1cc2c(cc1C3=O)OCO2	0.0829 µM	0.66 µM	0.35 µM	1.73 µM	0.131 µM	5.14 µM	24.5 µM	80.7 µM	0.255 µM	2.06 µM	0.754 µM	19 µM	1.15 µM	> 69.2 µM	0.448 µM	> 21.8 µM	25.4 µM	> 65.6 µM	0.233 µM	28.4 µM
CSc1nc(SC)c2c(C)cn(Cc3ccccc3)c2n1		> 100 µM		> 100 µM		> 100 µM		> 100 µM		> 100 µM		> 100 µM		> 100 µM		> 100 µM		> 100 µM		> 100 µM
O=C(O)c1cc(C(=O)C(=O)c2cc(C(=O)O)c(O)c3ccccc23)c2ccccc2c1O		> 100 µM		> 100 µM		> 100 µM		> 100 µM		> 100 µM		> 100 µM		> 100 µM		> 100 µM		> 100 µM		> 100 µM
COc1cc2cc(Oc3ccc(NC(=O)Nc4ccc(F)c(C(F)(F)F)c4)cc3)c(C)nc2cc1OCCN1CCOCC1	1.73 µM	3.44 µM	1.11 µM	11.2 µM	3.99 µM	20.5 µM	2.12 µM	8.9 µM	1.44 µM	2.86 µM	1.53 µM	3.31 µM	1.96 µM	5.34 µM	2.04 µM	9.43 µM	1.62 µM	3.13 µM	2.83 µM	11.1 µM
CCCC(c1cc(C(C)(C)C)c(O)cc1C)c1cc(C(C)(C)C)c(O)cc1C		5.41 µM		3.96 µM		8 µM		9.79 µM		3.43 µM		4.51 µM		3.92 µM		5.72 µM		12.4 µM		6.85 µM
O=P1(O)c2ccccc2CSCc2ccccc21		> 100 µM		> 100 µM		> 100 µM		> 100 µM		> 100 µM		> 100 µM		> 100 µM		> 100 µM		> 100 µM		> 100 µM
COc1c(O)cc2c(c1CC=C(C)C)OC(=O)c1c(cc(O)c(CC=C(C)C)c1O)O2	4.59 µM	8.47 µM	3.91 µM	7.82 µM	4.19 µM	7.72 µM	2.96 µM	7.4 µM	3.53 µM	7.68 µM	4.22 µM	8.5 µM	3.69 µM	7.29 µM	4.16 µM	8.06 µM	4.76 µM	9.52 µM	4.23 µM	7.75 µM
CC(=O)N[C@@H](Cc1ccc(OP(=O)(O)O)cc1)C(=O)N[C@H]1CCC(=O)N2CCC[C@@H](C(=O)NCc3cccc4ccccc34)N2C1=O	> 25 µM	> 25 µM	> 25 µM	> 25 µM	> 25 µM	> 25 µM	> 25 µM	> 25 µM	> 25 µM	> 25 µM	> 25 µM	> 25 µM	> 25 µM	> 25 µM	> 25 µM	> 25 µM	> 25 µM	> 25 µM	> 25 µM	> 25 µM
CN(CCNc1ccc(C(=N)N)cc1)c1ccc(C(=N)N)cc1	> 100 µM	> 100 µM	> 100 µM	> 100 µM	50 µM	> 100 µM	16.1 µM	51.9 µM	> 100 µM	> 100 µM	57 µM	> 100 µM	4.74 µM	> 100 µM	27.5 µM	> 100 µM	36.4 µM	> 100 µM	30.6 µM	> 100 µM
N#CC1(C#N)C2C=CC(C3CC=CC32)C1(C#N)C#N (stereo not given)	2.19 µM	3.36 µM and 7.76 µM	7.85 µM	3.4 µM and 15.7 µM		33.3 µM		> 50 µM		18.6 µM	8.72 µM	3.74 µM and 16 µM		> 50 µM		3.18 µM		21.6 µM		17.6 µM
CC(C)[C@]12O[C@H]1[C@@H]1O[C@]13[C@]1(O[C@H]1C[C@H]1C4=C(CC[C@@]13C)C(=O)OC4)[C@@H]2OC(=O)OC(C)(C)C	0.0308 µM	> 100 µM	< 0.0107 µM	> 100 µM	0.0146 µM	> 100 µM	0.019 µM	0.0713 µM	< 0.01 µM	> 100 µM	0.0157 µM	0.0336 µM	< 0.01 µM	> 33.6 µM	0.0137 µM	0.0635 µM	0.0176 µM		0.0253 µM	> 100 µM
CSc1nc(SC)c2cnn(-c3ccnc4cc(Cl)ccc34)c2n1	38.6 µM	> 100 µM	52.9 µM	> 100 µM	29.1 µM	> 96.1 µM	23.3 µM	> 100 µM	> 59 µM	> 100 µM	34.8 µM	> 94.7 µM	9.36 µM	> 45.6 µM	55.1 µM	> 100 µM	> 100 µM	> 100 µM	45.4 µM	> 100 µM
COc1ccc(C(=O)O[C@@H]2CCN3CC[C@H](C)[C@H]23)cc1		> 100 µM		> 100 µM		> 100 µM		> 100 µM		> 100 µM		> 100 µM		> 100 µM		> 100 µM		> 100 µM		> 100 µM
O=C(NCCCNc1cc(-c2cn(-c3ccccc3)nc2-c2cccc(O)c2)ccn1)c1ccc(F)cc1	1.49 µM	3.62 µM	2.14 µM	7.38 µM	2.64 µM	10.8 µM	2.58 µM	10.8 µM	2.27 µM	5.88 µM	1.85 µM	4.28 µM	3.14 µM	11.5 µM	3.09 µM	11.4 µM	1.74 µM	4.12 µM	2.96 µM	10.9 µM
CC12OC(C(=O)C13CC3)C1C(=O)c3cccc(O)c3C(=O)C12 (stereo not given)	6.45 µM	19.2 µM	4.31 µM	6.42 µM	7.21 µM	19.7 µM	25.8 µM	82.1 µM	5.1 µM	> 100 µM	24.6 µM	63.5 µM	18.6 µM	68.3 µM	8.84 µM	> 76.9 µM	23.1 µM	> 61.4 µM	8.29 µM	> 58.8 µM
COC(=O)Nc1nc2ccc(C(=O)C3CC3)cc2[nH]1	0.581 µM	30.5 µM	0.438 µM		0.523 µM	> 42.2 µM	0.28 µM	0.853 µM	0.72 µM	> 100 µM	0.276 µM		0.363 µM	20.7 µM	0.426 µM	16.4 µM	0.506 µM	> 63.7 µM	0.426 µM	> 100 µM
CCOC(=O)c1c2c(n(Cc3ccccc3)c1C)-c1nc[nH]c1C(=O)C2=O	18.1 µM	32.1 µM	16 µM	30.4 µM	18.6 µM	33.2 µM	29.3 µM	88.1 µM	14.9 µM	28.1 µM	21.4 µM	37.9 µM	11.2 µM	23.2 µM	15 µM	28.8 µM	19.3 µM	34.1 µM	14.7 µM	27.8 µM
CCOC(=O)c1cc2c(OC)cc(OC)cc2oc1=O		> 100 µM		> 100 µM		> 100 µM		> 100 µM		> 100 µM		> 100 µM		> 100 µM		> 100 µM		> 100 µM		> 100 µM
Oc1c(CCl)cc(Cl)cc1Cc1cc(Cl)cc(Cc2cc(Cl)cc(CCl)c2O)c1O	4.61 µM	25.3 µM	2.92 µM	10.4 µM	4.42 µM	26.5 µM	3.02 µM	22.6 µM	3.27 µM	12.2 µM	3.54 µM	15.7 µM	3.26 µM	11 µM	2.73 µM	10.2 µM	3.1 µM	16.1 µM	2.83 µM	21.1 µM
ClCCN(CCCl)c1ccc(OCc2ccccc2)cc1	2.97 µM	22.1 µM	6.81 µM	26.9 µM	4.05 µM	30.4 µM	15.7 µM	69.4 µM	3.13 µM	17.4 µM	4.16 µM	42.2 µM	0.603 µM	19.8 µM	4.64 µM	21.9 µM	13.8 µM	40.9 µM	2.1 µM	18.2 µM
